The source made the active and inactive calls.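 How the source made its calls: active means EC50 of 10 µM or lower; inactive means EC50 above 10 µM.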
Molecular target: Caspase-7 (Homo sapiens) (UniProt P55210)
Assay: procaspase-7 activation by procaspase-3 probe candidates, late-stage follow-up, selectivity assay for procaspase-3 activator project, biochemical, absorbance, PC-7 D3A triple mutant, powder samples (AID 504814)
Settings: recombinant procaspase-7 D3A, Ac-DEVD-pNA absorbance

Chain of Caspase-7 (Homo sapiens) (P55210 whole entry D23A/D198A/D206A): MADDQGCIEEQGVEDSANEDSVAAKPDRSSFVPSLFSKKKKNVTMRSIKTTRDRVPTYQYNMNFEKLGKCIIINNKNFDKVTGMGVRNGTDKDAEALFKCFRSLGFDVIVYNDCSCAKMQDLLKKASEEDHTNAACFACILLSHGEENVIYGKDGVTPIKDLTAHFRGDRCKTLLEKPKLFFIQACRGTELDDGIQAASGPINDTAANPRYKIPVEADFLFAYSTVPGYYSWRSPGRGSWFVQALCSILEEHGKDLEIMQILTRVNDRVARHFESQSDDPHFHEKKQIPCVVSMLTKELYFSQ

| EC50 | Structure (SMILES) |
| --- | --- |
| inactive | CC(NC(=O)c1cc2cc([N+](=O)[O-])ccc2oc1=O)C1CCCO1 (stereo not given) |
| > 85.3 µM (inactive) | COC(=O)c1ccccc1NCc1cc(=O)oc2cc(O)c(O)cc12 |
| inactive | CC(=O)Oc1cccc2c1C(=O)c1c(OC(C)=O)cc(C(=O)O)cc1C2=O |
| > 85.3 µM (inactive) | COc1ccccc1Nc1nc2c(C)cccc2cc1C#N |
| 7.68 µM | C=CCn1c(=NC(=O)c2cc(-c3cccs3)nc3ccccc23)sc2cc(S(N)(=O)=O)ccc21 |

From PubChem BioAssay AID504814 (The Scripps Research Institute Molecular Screening Center, 2011)
